The source made the active and inactive calls. The rule behind the calls is not given here.
Legend:
Rattus norvegicus [1] = test: Antiinflammatory activity in Wistar rat assessed as inhibition of carrageenan-induced paw edema at 0.31 mmol/kg, ip administered 30 mins prior to carrageenan-challenge measured up to 6 hrs; type: functional, organism-based
Mus musculus [2] = test: Antinociceptive activity in Swiss mouse assessed inhibition of formaldehyde-induced paw licking at 0.31 mmol/kg, ip administered 30 mins prior to formaldehyde-challenge measured up to 5 mins; type: functional, organism-based
Mus musculus [3] = test: Antinociceptive activity in Swiss mouse assessed inhibition of formaldehyde-induced paw licking at 0.31 mmol/kg, ip administered 30 mins prior to formaldehyde-challenge measured from 15 to 30 mins; type: functional, organism-based
Rattus norvegicus [4] = test: Antiinflammatory activity in Wistar rat assessed as inhibition of carrageenan-induced paw edema at 0.62 mmol/kg, ip administered 30 mins prior to carrageenan-challenge measured up to 6 hrs; type: functional, organism-based
[5] = n-Octanol-water distribution coefficient, log K of the compound by shake flask method; type: physicochemical; details: read-out: log KOW
Mus musculus [6] = test: Antinociceptive activity in Swiss mouse assessed as inhibition of zymosan A-induced writhing response at 0.31 mmol/kg, ip administered 30 mins prior to zymosan A-challenge; type: functional, organism-based
Mus musculus [7] = test: Antinociceptive activity in Swiss mouse assessed as inhibition of zymosan A-induced writhing response at 0.62 mmol/kg, ip administered 30 mins prior to zymosan A-challenge; type: functional, organism-based
Rattus norvegicus [8] = test: Antiinflammatory activity in Wistar rat assessed as inhibition of carrageenan-induced paw edema at 0.31 mmol/kg, ip administered 30 mins prior to carrageenan-challenge measured at 2 hrs; type: functional, organism-based
Mus musculus [9] = test: Antinociceptive activity in Swiss mouse assessed inhibition of formaldehyde-induced paw licking at 0.62 mmol/kg, ip administered 30 mins prior to formaldehyde-challenge measured from 15 to 30 mins; type: functional, organism-based
Mus musculus [10] = test: Antinociceptive activity in ip dosed Swiss mouse assessed as inhibition of zymosan A-induced writhing response administered 30 mins prior to zymosan A-challenge; type: functional
Mus musculus [11] = test: Antinociceptive activity in Swiss mouse assessed inhibition of formaldehyde-induced paw licking at 0.62 mmol/kg, ip administered 30 mins prior to formaldehyde-challenge measured up to 5 mins; type: functional, organism-based
Rattus norvegicus [12] = test: Antiinflammatory activity in Wistar rat assessed as inhibition of carrageenan-induced paw edema at 0.62 mmol/kg, ip administered 30 mins prior to carrageenan-challenge measured at 2 hrs; type: functional, organism-based
Mus musculus [13] = test: Neurotoxicity in Swiss mouse assessed as motor coordination by measuring change in time spent on rotating rod at 0.62 mmol/kg, ip administered 30 mins prior to testing; type: toxicity, organism-based; details: in vivo, 0.5 h
Mus musculus [14] = test: Antinociceptive activity in Swiss mouse assessed as inhibition of zymosan A-induced writhing response at 0.16 mmol/kg, ip administered 30 mins prior to zymosan A-challenge; type: functional, organism-based

In the case of `NNC(N)=O`, the inhibition (Rattus norvegicus [1]) is reported as “Active”, the inhibition (Mus musculus [2]) is reported as “inactive” and the inhibition (Mus musculus [3]) is reported as “Active”. For the same compound, the inhibition (Rattus norvegicus [4]) was “Active”.
For `O=Cc1ccccc1`, the inhibition (Mus musculus [3]) was “inactive”.
For `NC(=O)N/N=C/c1cccc(O)c1`, the logP [5] was 0.43, the inhibition (Mus musculus [6]) was “inactive” and the inhibition (Mus musculus [7]) was “inactive”.
In the case of `NC(=O)N/N=C/c1ccccc1O`, the inhibition (Rattus norvegicus [1]) is reported as “inactive”, the inhibition (Rattus norvegicus [8]) is reported as “Active” and the inhibition (Mus musculus [9]) is reported as “Active”. The logP [5] was 0.85, the MED (Mus musculus [10]) was 0.16 mmol/kg and the inhibition (Mus musculus [11]) was “inactive”. The inhibition (Rattus norvegicus [12]) was “Active”, the inhibition (Rattus norvegicus [4]) was “inactive” and the inhibition (Mus musculus [6]) was “Active”. The inhibition (Mus musculus [7]) was “Active” and the Activity (Mus musculus [13]) was “Non-toxic”.
In the case of `NC(=O)N/N=C/c1ccc(O)cc1`, the logP [5] is reported as 0.31, the inhibition (Mus musculus [6]) is reported as “inactive” and the inhibition (Mus musculus [7]) is reported as “inactive”.
With `NC(=O)N/N=C/c1ccccc1` the inhibition (Rattus norvegicus [1]) was “inactive”, the logP [5] was 0.91 and the inhibition (Mus musculus [2]) was “Active”. For the same compound, the inhibition (Mus musculus [3]) was “Active”, the inhibition (Rattus norvegicus [4]) was “inactive” and the inhibition (Mus musculus [14]) was “inactive”.

From ChEMBL document CHEMBL1955759, “Influence of susceptibility to hydrolysis and hydrophobicity of arylsemicarbazones on their anti-nociceptive and anti-inflammatory activities” (Eur J Med Chem, 2012)
